Test results taken from paper PMC6759758, “Cofactor Selectivity in Methylmalonyl Coenzyme A Mutase, a Model Cobamide-Dependent Enzyme” (mBio, 2019).
Where two headings read alike, the source gives them in different places.

How the values were obtained:
SmMCM = molecular target: T1, SmMCM (Rhizobium meliloti, UniProt O86028); assay: Filtration binding assay; design: species or system Sinorhizobium meliloti; conditions: 10 μM cobamide, 15 μM SmMCM
T1 construct: made in house; host or cells: E. coli BL21(DE3)pLysS
T1 sequence (O86028 2-712): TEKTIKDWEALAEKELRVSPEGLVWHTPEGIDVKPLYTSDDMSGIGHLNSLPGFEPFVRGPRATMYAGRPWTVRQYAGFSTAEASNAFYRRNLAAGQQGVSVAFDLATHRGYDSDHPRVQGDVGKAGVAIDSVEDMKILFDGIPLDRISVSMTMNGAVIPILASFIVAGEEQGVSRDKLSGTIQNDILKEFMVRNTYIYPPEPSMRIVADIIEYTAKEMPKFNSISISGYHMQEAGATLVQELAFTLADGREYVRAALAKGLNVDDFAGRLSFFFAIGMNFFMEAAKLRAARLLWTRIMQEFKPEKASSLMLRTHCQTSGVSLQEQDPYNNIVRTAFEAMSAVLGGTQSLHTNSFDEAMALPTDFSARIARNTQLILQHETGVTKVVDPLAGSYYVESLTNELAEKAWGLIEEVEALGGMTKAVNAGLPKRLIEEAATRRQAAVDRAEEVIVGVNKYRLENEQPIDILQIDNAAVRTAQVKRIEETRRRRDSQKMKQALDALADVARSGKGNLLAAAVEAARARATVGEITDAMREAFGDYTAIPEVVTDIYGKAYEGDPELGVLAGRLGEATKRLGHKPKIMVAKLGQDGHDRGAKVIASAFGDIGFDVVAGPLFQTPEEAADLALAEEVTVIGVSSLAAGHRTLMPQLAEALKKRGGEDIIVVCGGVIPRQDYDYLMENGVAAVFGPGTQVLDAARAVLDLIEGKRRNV
Method: Cobamides (10 μM) with and without MCM (15 μM) were incubated in 100 mM Tris, 50 mM phosphate, pH 7.5, at 30°C for 40 min, transferred to Nanosep 10K Omega centrifugal devices (Pall Corporation), and centrifuged for 5 min at 13,900 × g to separate unbound cobamides from enzyme-bound cobamides. The UV-Vis spectra of the filtrates were recorded on a BioTek Synergy 2 plate reader.

[1] = molecular target: T2, SmMCM (methylmalonyl-CoA mutase from S. meliloti) (Rhizobium meliloti, UniProt O86028); assay: biochemical; type: binding, Sinorhizobium meliloti; conditions: for binding to SmMCM detected by fluorescence quench (in words): low-micromolar / micromolar concentrations
T2 construct: made in house; host or cells: E. coli BL21(DE3)pLysS
T2 sequence (O86028 2-712): T1 sequence (O86028 2-712)
Method: (§1) All steps involving cobamides were conducted in the dark. The plate was centrifuged for 1 min at 3,800 rpm to level the surface of the liquid in each well. The plate was then incubated for 40 min at 30°C to allow binding, with a brief shaking step after 30 min. […] Following incubation, fluorescence emission at 340 nm (5-nm slit width) was measured upon excitation at 282 nm (5-nm slit width) using a Tecan Infinite M1000 Pro plate reader. Fluorescence, normalized to the initial value, was plotted as a function of cobamide concentration, and fitted to the following equation ([134]): F/F0=1+ΔFmax/F0([E]+[L]+Kd)−([E]+[L]+Kd)^2−4[E][L]/2[E] where F is fluorescence, F0 is initial fluorescence, [E] is total enzyme concentration, [L] is total ligand concentration, and Kd is the binding dissociation constant.

MCM [2] = test system: MCM; design: method as in PMID 10563814; conditions: cited from earlier work
[3] = molecular target: T3, SmMCM (Sinorhizobium meliloti MCM) (Rhizobium meliloti, UniProt O86028); assay: Thiokinase-coupled spectrophotometric MCM activity assay; type: biochemical; conditions: SmMCM 50 nM reconstituted with 2 μM cobamide; (R)-methylmalonyl-CoA to succinyl-CoA, steady state, 30°C
T3 construct: made in house; host or cells: E. coli BL21(DE3)pLysS
T3 sequence (O86028 2-712): T1 sequence (O86028 2-712)
Method: Final concentrations of reagents in the assays were as follows: Tris-phosphate buffer (pH 7.5), 100 mM Tris, 50 mM phosphate; dithionitrobenzoate (DTNB), 400 μM; ADP, 1 mM; MgCl2, 10 mM; (R)-methylmalonyl-CoA, 0 to 4 mM; thiokinase, 5 μM; MCM, 50 nM; and cobamides, 2 μM.
Three separate mixes were prepared, all in 1× Tris-phosphate buffer: an assay mix containing DTNB, ADP, and MgCl2; a substrate mix containing (R)-methylmalonyl-CoA; and an enzyme mix containing thiokinase, MCM, and cobamides. All steps involving cobamides were conducted in the dark. The assay and enzyme mixes were prepared as a master mix and aliquoted into 96-well plates; substrate mixes were prepared in individual wells, in triplicate. All components were incubated at 30°C for 40 min to equilibrate temperature and allow prebinding of cobamides and MCM. After incubation, one replicate at a time, the substrate mix was added to the assay mix, followed by the enzyme mix. Absorbance at 412 nm (A412) was recorded immediately after addition of enzyme and for 1 to 3 min, every 3 s, on a BioTek Synergy 2 plate reader. The increase in A412 in reaction mixtures lacking substrate was subtracted from all readings, to account for reactivity of DTNB with thiols on protein surfaces.

MCM [4] = test system: MCM; design: method as in PMID 14235521; conditions: cited from earlier work
EcMCM (E. coli MCM) = molecular target: T4, EcMCM (E. coli MCM) (Escherichia coli, UniProt P27253); assay: Fluorescence binding assay, EcMCM; conditions: read-out: Kd EcMCM; fitted curve, error = standard error of the curve fit
T4 construct: 6xHis (N); made in house; host or cells: E. coli BL21(DE3)
T4 sequence (P27253 whole entry): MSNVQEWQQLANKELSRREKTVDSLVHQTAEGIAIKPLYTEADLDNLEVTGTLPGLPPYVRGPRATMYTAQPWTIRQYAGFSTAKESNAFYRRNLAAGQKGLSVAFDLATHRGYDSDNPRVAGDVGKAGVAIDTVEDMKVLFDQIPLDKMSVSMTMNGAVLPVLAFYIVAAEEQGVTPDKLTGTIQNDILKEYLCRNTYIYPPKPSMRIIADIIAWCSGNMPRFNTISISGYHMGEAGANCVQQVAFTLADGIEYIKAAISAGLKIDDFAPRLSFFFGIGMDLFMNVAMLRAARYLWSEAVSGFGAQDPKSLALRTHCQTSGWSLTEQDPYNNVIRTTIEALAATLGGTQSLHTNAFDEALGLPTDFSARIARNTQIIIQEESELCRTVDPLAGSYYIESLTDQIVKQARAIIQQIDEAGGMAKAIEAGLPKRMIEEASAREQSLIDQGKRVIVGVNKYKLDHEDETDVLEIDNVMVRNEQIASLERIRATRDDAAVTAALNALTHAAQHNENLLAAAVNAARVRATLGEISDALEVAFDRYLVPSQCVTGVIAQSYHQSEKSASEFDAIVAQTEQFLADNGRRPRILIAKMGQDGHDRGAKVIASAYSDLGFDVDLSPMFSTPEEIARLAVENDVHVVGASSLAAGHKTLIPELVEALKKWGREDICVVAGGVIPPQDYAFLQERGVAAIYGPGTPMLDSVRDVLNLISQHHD
Method: as §1

VpMCM (V. parvula MCM) = VpMCM (V. parvula MCM) (Veillonella parvula, UniProt A0A124EFR6); assay: Fluorescence binding assay, VpMCM; conditions: fitted curve, error = standard error of the curve fit; equimolar α and β subunits
Chain of VpMCM (V. parvula MCM) (A0A124EFR6 entry or part of it): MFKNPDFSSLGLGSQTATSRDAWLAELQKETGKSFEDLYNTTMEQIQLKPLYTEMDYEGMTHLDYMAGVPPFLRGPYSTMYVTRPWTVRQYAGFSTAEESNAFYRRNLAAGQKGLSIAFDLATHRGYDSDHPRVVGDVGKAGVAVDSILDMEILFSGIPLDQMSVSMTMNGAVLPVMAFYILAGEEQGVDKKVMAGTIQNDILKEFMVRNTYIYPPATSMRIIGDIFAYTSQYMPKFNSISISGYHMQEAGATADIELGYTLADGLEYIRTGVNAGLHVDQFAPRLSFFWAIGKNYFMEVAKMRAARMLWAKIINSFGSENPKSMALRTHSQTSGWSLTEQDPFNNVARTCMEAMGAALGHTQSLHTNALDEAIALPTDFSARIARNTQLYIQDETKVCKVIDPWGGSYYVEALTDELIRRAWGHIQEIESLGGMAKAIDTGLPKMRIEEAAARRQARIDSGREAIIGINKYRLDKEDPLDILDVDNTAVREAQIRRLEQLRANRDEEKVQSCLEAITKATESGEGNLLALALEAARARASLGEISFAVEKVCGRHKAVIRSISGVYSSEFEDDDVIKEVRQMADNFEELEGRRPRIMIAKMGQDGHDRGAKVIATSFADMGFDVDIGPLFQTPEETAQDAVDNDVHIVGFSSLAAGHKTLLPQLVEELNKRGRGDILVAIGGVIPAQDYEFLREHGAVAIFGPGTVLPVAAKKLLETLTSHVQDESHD
Method: The α subunit of VpMCM (encoded by Vpar_RS09005) was expressed with an N-terminal 6×His tag from the pET-Duet expression vector in E. coli BL21(DE3). Protein expression was induced with 520 μM IPTG for 6 h at 30°C. The protein was batch purified by nickel affinity and subsequently purified by FPLC using a HiTrapQ column with an NaCl gradient from 50 to 500 mM in […], pH 8.0, 10% glycerol. The β subunit of VpMCM (encoded by Vpar_RS09000) was expressed separately with an N-terminal 6×His tag from the pET-Duet expression vector in E. coli BL21(DE3). […] Purified protein was dialyzed into 25 mM Tris-HCl, pH 8.0, 300 mM NaCl, 10% glycerol, and 1 mM β-mercaptoethanol. Concentration of pure α and β subunits (Fig. S7) was determined by absorbance at 280 nm (A280) using the theoretically calculated extinction coefficients 75,290 M^−1 cm^−1 and 74,260 M^−1 cm^−1, respectively ([125]). Equimolar amounts of α and β subunits were combined during the setup of fluorescence binding assays.
as §1

P. shermanii MCM = test system: P. shermanii MCM; design: method as in PMID 11031263; conditions: cited from earlier work

| Compound | binding to SmMCM in filtration-based assay (SmMCM) | binding to SmMCM detected by fluorescence quench (in words) [1] | MCM activity in S. meliloti bacteroids (MCM [4]) | Kd (EcMCM (E. coli MCM)) | Kd (VpMCM (V. parvula MCM)) | also measured |
| --- | --- | --- | --- | --- | --- | --- |
| 5-Hydroxybenzimidazolylcobamide [Ado[5-OHBza]Cba] | little to no binding | no binding | – | – | – | – |
| C/C1=C2/[N-][C@H]([C@H](CC(N)=O)[C@@]2(C)CCC(=O)NC[C@@H](C)O)[C@]2(C)N=C(/C(C)=C3N=C(/C=C4N=C1[C@@H](CCC(N)=O)C\4(C)C)[C@@H](CCC(N)=O)[C@]\3(C)CC(N)=O)[C@@H](CCC(N)=O)[C@]2(C)CC(N)=O.[CH2-][C@H]1O[C@@H](n2cnc3c(N)ncnc32)[C@H](O)[C@@H]1O.[Co+3] [Ado-cobinamide, adenosylcobinamide, reference compound] | – | – | – | – | – | support of MCM activity in vitro (MCM [2]): does not support MCM activity; Kd [1]: 800 ± 200 nM |
| C/C1=C2/[N-][C@H]([C@H](CC(N)=O)[C@@]2(C)CCC(=O)NC[C@@H](C)OP(=O)([O-])O[C@H]2[C@@H](O)[C@@H](n3cnc4cc(C)c(C)cc43)O[C@@H]2CO)[C@]2(C)N=C(/C(C)=C3N=C(/C=C4N=C1[C@@H](CCC(N)=O)C\4(C)C)[C@@H](CCC(N)=O)[C@]\3(C)CC(N)=O)[C@@H](CCC(N)=O)[C@]2(C)CC(N)=O.[CH2-][C@H]1O[C@@H](n2cnc3c(N)ncnc32)[C@H](O)[C@@H]1O.[Co+3] [AdoCbl, adenosylcobalamin, reference compound] | – | – | highest | 600 ± 100 nM | 2800 ± 600 nM | kcat [3]: 26 ± 1 s⁻¹; Kd ([1]; SmMCM 0.2 μM, pH 7.5, 30°C, average and standard deviation for three or more independent experiments, n. d. = binding too weak to determine Kd): 30 ± 20 nM |
| C/C1=C2/[N-][C@H]([C@H](CC(N)=O)[C@@]2(C)CCC(=O)NC[C@@H](C)OP(=O)([O-])O[C@H]2[C@@H](O)[C@@H](n3cnc4ncnc(N)c43)O[C@@H]2CO)[C@]2(C)N=C(/C(C)=C3N=C(/C=C4N=C1[C@@H](CCC(N)=O)C\4(C)C)[C@@H](CCC(N)=O)[C@]\3(C)CC(N)=O)[C@@H](CCC(N)=O)[C@]2(C)CC(N)=O.[CH2-][C@H]1O[C@@H](n2cnc3c(N)ncnc32)[C@H](O)[C@@H]1O.[Co+3] [Ado[Ade]Cba, Adeninylcobamide] | did not bind to any significant extent | did not bind to any significant extent | absent | 1600 ± 400 nM | 9000 ± 4000 nM | – |
| C/C1=C2/[N-][C@H]([C@H](CC(N)=O)[C@@]2(C)CCC(=O)NC[C@@H](C)OP(=O)([O-])OP(=O)([O-])OC[C@H]2O[C@@H](n3cnc4c(=O)[nH]c(N)nc43)[C@H](O)[C@@H]2O)[C@]2(C)N=C(/C(C)=C3N=C(/C=C4N=C1[C@@H](CCC(N)=O)C\4(C)C)[C@@H](CCC(N)=O)[C@]\3(C)CC(N)=O)[C@@H](CCC(N)=O)[C@]2(C)CC(N)=O.[CH2-][C@H]1O[C@@H](n2cnc3c(N)ncnc32)[C@H](O)[C@@H]1O.[Co] [adenosylcobinamide-GDP] | – | – | – | – | – | support of P. shermanii MCM activity compared to AdoCbl (P. shermanii MCM): only slight catalytic impairment |
